Source: the NIST ThermoML archive (doi:10.1021/je0603325)

Columns and labels:
[1] = molar heat capacity at constant pressure; settings: 101 kPa, Liquid, Small sample (50 mg) DSC
[2] = 101 kPa, Liquid
[3] = xn = mol fraction of the nth substance listed; settings: 101 kPa, Liquid, x2 = 0

BrCCBr [1,2-dibromoethane]
Settings | mass density [kg/m3] | molar heat capacity at constant pressure [J/K/mol] | speed of sound [m/s]
[1], 293.15 K | – | 136.87 | –
[1], 294.15 K | – | 136.9 | –
[1], 295.15 K | – | 136.95 | –
[1], 296.15 K | – | 136.99 | –
[1], 297.15 K | – | 137.02 | –
[1], 298.15 K | – | 137.04 | –
[1], 299.15 K | – | 137.09 | –
[1], 300.15 K | – | 137.11 | –
[1], 301.15 K | – | 137.15 | –
[1], 302.15 K | – | 137.2 | –
[1], 303.15 K | – | 137.25 | –
[1], 304.15 K | – | 137.29 | –
[1], 305.15 K | – | 137.32 | –
[1], 306.15 K | – | 137.39 | –
[1], 307.15 K | – | 137.42 | –
[1], 308.15 K | – | 137.49 | –
[1], 309.15 K | – | 137.53 | –
[1], 310.15 K | – | 137.6 | –
[1], 311.15 K | – | 137.65 | –
[1], 312.15 K | – | 137.71 | –
[1], 313.15 K | – | 137.77 | –
[2], 292.84 K | – | – | 1007.5
[2], 293.15 K | 2178.77 | – | –
[2], 298.15 K | 2168.41 | – | –
[2], 299.17 K | – | – | 991.14
[2], 303.15 K | 2157.94 | – | –
[2], 303.37 K | – | – | 980.18
[2], 308.15 K | 2147.47 | – | –
[2], 308.75 K | – | – | 966.56
[2], 313.15 K | 2136.96 | – | –
[2], 314.45 K | – | – | 952

CCCCCCC [heptane]
[2]
Settings | mass density [kg/m3]
293.15 K | 683.82
298.15 K | 679.59
303.15 K | 675.31
308.15 K | 671.02
313.15 K | 666.68

CCCCCCC [heptane] + BrCCBr
[3]
Settings | mass density [kg/m3]
293.15 K | 683.82
298.15 K | 679.59
303.15 K | 675.31
308.15 K | 671.02
313.15 K | 666.68
